{"source": "patent US8846653B2", "about": "“Delta-tocotrienol treatment and prevention of pancreatic cancer” (University of South Florida, priority 2006, dated 2014)", "tested_on": "MiaPaCa-2 cells", "test": "MTS assay of MiaPaCa2 cultures, single 50 μM dose", "format": "cell-based, human", "conditions": "MiaPaCa2, 50 μM", "experimental": "MiaPaCa-2 cells were cultured in complete DMEM media containing 10% fetal bovine serum (FBS) and 1% penicillin-streptomycin, and 1% L-glutamine. BxPc-3 pancreatic cancer cells were cultured in complete RPMI media containing 10% fetal bovine serum (FBS), and 1% penicillin-streptomycin, 1% HEPES buffer, 1% sodium pyruvate and 1% L-glutamine HPDE6-C7 cells were cultured in serum-free keratinocyte SFM media. All cells were maintained at 37° C. in a humidified incubator with 5% CO2. The cells were treated with a single 50 μM dose of vehicle (vehicle only, may be a solvent), T3 alpha (alpha tocotrienol), T3 beta (beta tocotrienol), T3 gamma (gamma tocotrienol), T3 delta (delta tocotrienol), T alpha (alpha tocopherol), T beta (beta tocopherol), TS (tocopherol succinate), GG (geranylgeraniol), SA (succinic acid). A control (no treatment) culture was grown alongside the treatments for comparison. […]"}
{"smiles": "Cc1c(O)cc2c(c1C)O[C@](C)(CCC[C@H](C)CCC[C@H](C)CCCC(C)C)CC2", "note": "[T gamma]", "values": [{"measurement": "rel amt (relative value set to the control)", "setting": "24 hours", "result": 121}, {"measurement": "MTS assay result, run 1", "setting": "24 hours", "result": 0.273}, {"measurement": "MTS assay result, run 2", "setting": "24 hours", "result": 0.261}, {"measurement": "MTS assay result, run 3", "setting": "24 hours", "result": 0.268}, {"measurement": "MTS assay result, run 4", "setting": "24 hours", "result": 0.219}, {"measurement": "MTS assay result, run 5", "setting": "24 hours", "result": 0.264}, {"measurement": "MTS assay result, run 6", "setting": "24 hours", "result": 0.31}, {"measurement": "MTS assay result, run 7", "setting": "24 hours", "result": 0.295}, {"measurement": "MTS assay result, run 8", "setting": "24 hours", "result": 0.263}, {"measurement": "MTS assay result, run 9", "setting": "24 hours", "result": 0.269}, {"measurement": "rel amt (relative value set to the control)", "setting": "48 hours", "result": 81}, {"measurement": "MTS assay result, run 1", "setting": "48 hours", "result": 0.329}, {"measurement": "MTS assay result, run 2", "setting": "48 hours", "result": 0.265}, {"measurement": "MTS assay result, run 3", "setting": "48 hours", "result": 0.304}, {"measurement": "MTS assay result, run 4", "setting": "48 hours", "result": 0.25}, {"measurement": "MTS assay result, run 5", "setting": "48 hours", "result": 0.289}, {"measurement": "MTS assay result, run 6", "setting": "48 hours", "result": 0.341}, {"measurement": "MTS assay result, run 7", "setting": "48 hours", "result": 0.301}, {"measurement": "MTS assay result, run 8", "setting": "48 hours", "result": 0.279}, {"measurement": "MTS assay result, run 9", "setting": "48 hours", "result": 0.295}, {"measurement": "rel amt (relative value set to the control)", "setting": "72 hours", "result": 108}, {"measurement": "MTS assay result, run 1", "setting": "72 hours", "result": 0.5}, {"measurement": "MTS assay result, run 2", "setting": "72 hours", "result": 0.497}, {"measurement": "MTS assay result, run 3", "setting": "72 hours", "result": 0.46}, {"measurement": "MTS assay result, run 4", "setting": "72 hours", "result": 0.505}, {"measurement": "MTS assay result, run 5", "setting": "72 hours", "result": 0.515}, {"measurement": "MTS assay result, run 6", "setting": "72 hours", "result": 0.469}, {"measurement": "MTS assay result, run 7", "setting": "72 hours", "result": 0.429}, {"measurement": "MTS assay result, run 8", "setting": "72 hours", "result": 0.451}, {"measurement": "MTS assay result, run 9", "setting": "72 hours", "result": 0.478}]}
{"smiles": "Cc1c(C)c2c(c(C)c1OC(=O)CCC(=O)O)CC[C@@](C)(CCC[C@H](C)CCC[C@H](C)CCCC(C)C)O2", "note": "[TS, tocopherol succinate]", "values": [{"measurement": "rel amt (relative value set to the control)", "setting": "24 hours", "result": 96}, {"measurement": "MTS assay result, run 1", "setting": "24 hours", "result": 0.24}, {"measurement": "MTS assay result, run 2", "setting": "24 hours", "result": 0.211}, {"measurement": "MTS assay result, run 3", "setting": "24 hours", "result": 0.226}, {"measurement": "MTS assay result, run 4", "setting": "24 hours", "result": 0.172}, {"measurement": "MTS assay result, run 5", "setting": "24 hours", "result": 0.221}, {"measurement": "MTS assay result, run 6", "setting": "24 hours", "result": 0.201}, {"measurement": "MTS assay result, run 7", "setting": "24 hours", "result": 0.214}, {"measurement": "MTS assay result, run 8", "setting": "24 hours", "result": 0.228}, {"measurement": "MTS assay result, run 9", "setting": "24 hours", "result": 0.214}, {"measurement": "rel amt (relative value set to the control)", "setting": "48 hours", "result": 76}, {"measurement": "MTS assay result, run 1", "setting": "48 hours", "result": 0.257}, {"measurement": "MTS assay result, run 2", "setting": "48 hours", "result": 0.254}, {"measurement": "MTS assay result, run 3", "setting": "48 hours", "result": 0.262}, {"measurement": "MTS assay result, run 4", "setting": "48 hours", "result": 0.237}, {"measurement": "MTS assay result, run 5", "setting": "48 hours", "result": 0.258}, {"measurement": "MTS assay result, run 6", "setting": "48 hours", "result": 0.275}, {"measurement": "MTS assay result, run 7", "setting": "48 hours", "result": 0.32}, {"measurement": "MTS assay result, run 8", "setting": "48 hours", "result": 0.337}, {"measurement": "MTS assay result, run 9", "setting": "48 hours", "result": 0.275}, {"measurement": "rel amt (relative value set to the control)", "setting": "72 hours", "result": 207}, {"measurement": "MTS assay result, run 1", "setting": "72 hours", "result": 0.998}, {"measurement": "MTS assay result, run 2", "setting": "72 hours", "result": 0.962}, {"measurement": "MTS assay result, run 3", "setting": "72 hours", "result": 1.016}, {"measurement": "MTS assay result, run 4", "setting": "72 hours", "result": 0.887}, {"measurement": "MTS assay result, run 5", "setting": "72 hours", "result": 0.936}, {"measurement": "MTS assay result, run 6", "setting": "72 hours", "result": 0.897}, {"measurement": "MTS assay result, run 7", "setting": "72 hours", "result": 0.85}, {"measurement": "MTS assay result, run 8", "setting": "72 hours", "result": 0.801}, {"measurement": "MTS assay result, run 9", "setting": "72 hours", "result": 0.918}]}
